Patent US10188756B2, “Imaging histone deacetylases with a radiotracer using positron emission tomography” (THE GENERAL HOSPITAL CORPORATION, priority 2013, dated 2019)
Entries after “also recorded” stand apart in the source; their conditions may differ.

Key:
HDAC1 = HDAC1 (Homo sapiens (Human), UniProt Q13547); test: HDAC inhibition assay; details: read-out: IC50 HDAC1
Description: (§3) All histone deacetylases were purchased from BPS Bioscience. […] All the other reagents were purchased from Sigma-Aldrich. Caliper EZ reader II system was used to collect all data. […] Purified HDACs were incubated with 2 μM carboxyfluorescein (FAM)-labeled acetylated or trifluoroacetylated peptide substrate (Broad Substrate A and B respectively) and test compound for 60 minutes at room temperature, in HDAC assay buffer that contained 50 mM HEPES (pH 7.4), 100 mM KCl, 0.01% BSA and 0.001% Tween-20. […] Substrate and product were separated electrophoretically and fluorescence intensity in the substrate and product peaks was determined and analyzed by Labchip EZ Reader. The reactions were performed in duplicate for each sample. IC50 values were automatically calculated by Origin 8 using 4 Parameter Logistic Model. The percent inhibition was plotted against the compound concentration, and the IC50 value was determined from the logistic dose-response curve fitting by Origin 8.0 software.

histone deacetylases [1] = test: Rodent PET/CT imaging with [11C]CN133; format: in vivo, rats (Sprague Dawley); details: for [11C]CN133 uptake in peripheral organs/regions of rats after treatment: peripheral organs (heart wall, kidney cortex, spleen); for blocking of [11C]CN133 uptake in rat brain after pretreatment: whole brain, 5-minute pretreatment
Description: Male Sprague-Dawley rats were utilized in pairs, anesthetized with inhalational isoflurane (Forane) at 3% in a carrier of 2 L/min medical oxygen and maintained at 2% isoflurane for the duration of the scan. The rats were arranged head-to-head in a Triumph Trimodality PET/CT/SPECT scanner (Gamma Medica, Northridge, Calif., USA). Rats were injected standard references or vehicle via a lateral tail vein catheterization at the start of PET acquisition. Dynamic PET acquisition lasted for 60 minutes and was followed by computed tomography (CT) for anatomic coregistration. PET data were reconstructed using a 3D-MLEM method resulting in a full width at half-maximum resolution of 1 mm. Reconstructed images were exported from the scanner in DICOM format along with an anatomic CT for rodent studies. These files were imported to PMOD (PMOD Technologies, Ltd.) and manually coregistered using six degrees of freedom.
(§1) Volumes of interest (VOIs) were drawn manually as spheres in brain regions guided by high resolution CT structural images and summed PET data, with a radius no less than 1 mm to minimize partial volume effects. Time-activity curves (TACs) were exported in terms of decay corrected activity per unit volume at specified time points with gradually increasing intervals. The TACs were expressed as percent injected dose per unit volume for analysis.

HDAC3 = HDAC3 (Homo sapiens (Human), UniProt O15379); test: HDAC inhibition assay; details: read-out: IC50 HDAC3
Description: as §3

HDAC2 = HDAC2 (Homo sapiens (Human), UniProt Q92769); test: HDAC inhibition assay; format: biochemical
Source text: (§2) All histone deacetylases were purchased from BPS Bioscience. […] All the other reagents were purchased from Sigma-Aldrich.

[2] = Off target binding assays; details: at 100 times its HDAC IC50
Log D determination = format: physicochemical; details: octanol / phosphate buffer pH 7.4
Description: An aliquot (˜50 μL) of the formulated radiotracer was added to a test tube containing 2.5 mL of octanol and 2.5 mL of phosphate buffer solution (pH 7.4). The test tube was mixed by vortex for 2 minutes and then centrifuged for 2 minutes to fully separate the aqueous and organic phase. A sample taken from the octanol layer (0.1 mL) and the aqueous layer (1.0 mL) was saved for radioactivity measurement. An additional aliquot of the octanol layer (2.0 mL) was carefully transferred to a new test tube containing 0.5 mL of octanol and 2.5 mL of phosphate buffer solution (pH 7.4). The previous procedure (vortex mixing, centrifugation, sampling, and transfer to the next test tube) was repeated until six sets of aliquot samples had been prepared. The radioactivity of each sample was measured in a well counter (Perkin-Elmer, Waltham, Mass.). The log D of each set of samples was derived by the following equation: log D=log (decay-corrected radioactivity in octanol sample×10/decay-corrected radioactivity in phosphate buffer sample).

HDAC7 = HDAC7 (Homo sapiens (Human), UniProt Q8WUI4); test: HDAC inhibition assay; details: read-out: IC50 HDAC7
Description: as §3

HDAC9 = HDAC9 (Homo sapiens (Human), UniProt Q9UKV0); test: HDAC inhibition assay; details: read-out: IC50 HDAC9
Description: as §3

HDAC1 through HDAC9 = test: HDAC inhibition assay, isoform panel; format: biochemical; details: for IC50 / binding towards HDAC isoforms (in words): HDAC1, HDAC2, HDAC3 and HDAC6
Source text: as §2

HDAC4 = HDAC4 (Homo sapiens (Human), UniProt P56524); test: HDAC inhibition assay; details: read-out: IC50 HDAC4
Description: as §3

HDAC5 = HDAC5 (Homo sapiens (Human), UniProt Q9UQL6); test: HDAC inhibition assay; details: read-out: IC50 HDAC5
Description: as §3

cell cultures = test: Efficacy in cell cultures; format: cell-based
HDAC6 = HDAC6 (Homo sapiens (Human), UniProt Q9UBN7); test: HDAC inhibition assay; format: biochemical
Source text: as §2

HDAC8 = HDAC8 (Homo sapiens (Human), UniProt Q9BY41); test: HDAC inhibition assay; format: biochemical
Source text: as §2

histone deacetylases [3] = test: Baboon PET/MR imaging with [11C]CN133; format: in vivo, baboon (Papio anubis); details: for changes in vital signs: tracer dose or blocking dose; for blocking of [11C]CN133 uptake in baboon peripheral organs (time-activity curves): heart, spleen, pancreas, CN133 0.5 mg/kg 10-minute pre-treatment, SAHA infusion 5 mg/kg; for VT (Ichese MAI), Baseline / VT (Logan Plot), Baseline: [11C]CN133 distribution volume, t*=35 min to 80 min
Description: A female Papio Anubis baboon, deprived of food for 12 hours prior to the study, was administered intramuscular ketamine (10 mg/kg) and intubated. For maintenance of anesthesia throughout the study, the baboon was provided 1%-4% isoflurane (Forane) in a mixture of medical oxygen and nitrogen. The baboon was catheterized antecubitally for radiotracer injection and a radial arterial line was placed for metabolite analysis. MR-PET images were acquired in a BiographmMR scanner (Siemens, Munich, Germany), and PET compatible 8-channel coil arrays for non-human primate brain imaging with a PET resolution of 5 mm and field of view of 59.4 cm and 25.8 cm (transaxial and axial, respectively). Dynamic PET image acquisition was initiated followed by administration of the radiotracer in a homogenous solution of 10% ethanol and 90% isotonic saline. An […] sequence began after 30 minutes of the baseline scan for anatomic coregistration. […] Both scans were carried out in the same animal on the same day, separated by 2.5 hours. In both scans, 4-5 mCi of [^11C]CN133 was administered to the baboon. Dynamic data from the PET scans were recorded in list mode and corrected for attenuation. Baboon data were reconstructed using a 3D-OSEM method resulting in a full width at half-maximum resolution of 4 mm.
as §1, with “MR” for “CT”, “4 mm. A common VOI mask was applied” for “1 mm”, “both baboon scans.” for “minimize partial volume effects.”
Arterial samples collected during imaging from the baboon were centrifuged to obtain plasma, which was then removed and placed in an automated gamma counter that was calibrated to the PET scanner. Metabolite analysis was conducted on a custom automated robot fitted with Phenomenex SPE Strata-X 500 mg solid phase extraction cartridges that were primed with ethanol (2 mL) and deionized water (20 mL). Protein precipitation was achieved by addition of plasma (300 μL) to acetonitrile (300 μL), which was centrifuged for 1 minute to obtain protein-free plasma (PFP). 300 μL of PFP/acetonitrile solution was diluted into deionized water (3 mL), loaded onto the C18 cartridge, and removed of polar metabolites with 100% water. Next, a series of extractions were performed using water and acetonitrile in quantities: 95:5, 90:10, 85:15, 80:20, 70:30, 60:40, 30:70 and 100% acetonitrile at a volume of 4 mL. A control experiment was performed before metabolite analysis to determine the retention of the parent compound by injection of a small amount of [^11C]CN133 onto a test series of extraction cartridges. Each sample was counted in a WIZARD2 Automatic Gamma Counter to determine the presence of radiolabeled metabolites.
CN147 blocks ˜40% of [^11C]CN133 binding in NHP whole brain and in cerebellum. Plasma-normalized data were evaluated by volume of interest analysis (VOI) at the whole brain level and at level of the cerebellum. VOI data were then applied to distribution volume (VT) data analysis by two graphical methods using PMOD software, tabulated in Tables A and B below. Logan Plot and Ichese MAI methods were clarified from previous NHP imaging analyses to provide an accurate VT estimate (+/− standard error) from data beginning 35 min after injection of radiotracer (t*=35 min) until the end of the scan (t=80min).

[4] = Plasma protein binding assay, human plasma; format: in vitro ADME; details: method derives % unbound, read-out: plasma protein binding (PPB) (converted)
[5] = Plasma protein binding assay, baboon plasma; format: in vitro ADME; details: method derives % unbound, read-out: plasma protein binding (PPB) (converted)
Description: An aliquot of radiotracer in saline (10 μL) was added to a sample of baboon plasma (0.8 mL, pooled from two separate animals). The mixture was gently mixed by repeated inversion and incubated for 10 minutes at room temperature. Following incubation a small sample (20 μL) was removed to determine the total radioactivity in the plasma sample (AT; AT=Abound+Aunbound). An additional 0.2 mL of the plasma sample was placed in the upper compartment of a Centrifree tube (Amicon, Inc., Beverly, Mass., USA) and then centrifuged for 10 minutes. The upper part of the Centrifree tube was discarded, and an aliquot (20 μL) from the bottom part of the tube was removed to determine the amount of radioactivity that passed through the membrane (Aunbound). Plasma protein binding was derived by the following equation: % unbound=Aunbound×100/AT.

Chain of HDAC1 (Q13547 whole entry): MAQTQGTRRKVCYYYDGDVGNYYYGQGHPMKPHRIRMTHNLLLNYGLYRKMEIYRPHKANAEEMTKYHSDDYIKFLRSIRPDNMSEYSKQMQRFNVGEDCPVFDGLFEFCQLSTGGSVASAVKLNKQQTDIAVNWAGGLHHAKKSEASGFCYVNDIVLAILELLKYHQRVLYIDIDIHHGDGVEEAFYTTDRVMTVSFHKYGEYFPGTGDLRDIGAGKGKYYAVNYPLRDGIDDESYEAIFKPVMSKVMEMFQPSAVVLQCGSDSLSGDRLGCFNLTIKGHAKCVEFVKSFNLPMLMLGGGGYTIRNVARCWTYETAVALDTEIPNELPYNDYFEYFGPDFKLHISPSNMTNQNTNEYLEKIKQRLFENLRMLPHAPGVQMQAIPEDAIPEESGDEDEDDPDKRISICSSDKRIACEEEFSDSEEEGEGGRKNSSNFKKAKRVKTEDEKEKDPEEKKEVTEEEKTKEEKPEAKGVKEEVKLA
Chain of HDAC3 (O15379 whole entry): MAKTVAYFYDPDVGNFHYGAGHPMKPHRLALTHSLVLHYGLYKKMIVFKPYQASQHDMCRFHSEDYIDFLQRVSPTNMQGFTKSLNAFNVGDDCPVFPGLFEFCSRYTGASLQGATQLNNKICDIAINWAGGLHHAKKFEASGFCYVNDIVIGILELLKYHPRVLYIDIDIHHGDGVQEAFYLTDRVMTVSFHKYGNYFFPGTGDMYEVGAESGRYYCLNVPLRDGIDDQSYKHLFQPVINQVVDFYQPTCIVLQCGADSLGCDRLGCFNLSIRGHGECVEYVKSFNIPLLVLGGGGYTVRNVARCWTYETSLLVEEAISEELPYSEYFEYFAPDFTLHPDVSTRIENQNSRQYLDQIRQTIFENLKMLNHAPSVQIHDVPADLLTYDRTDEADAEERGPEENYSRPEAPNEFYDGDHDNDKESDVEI
Chain of HDAC3 (Q9Y618 395-489 partner): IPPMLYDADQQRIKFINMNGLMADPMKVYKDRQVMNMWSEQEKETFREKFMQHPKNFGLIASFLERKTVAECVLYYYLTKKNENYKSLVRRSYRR
Chain of HDAC6 (Q9UBN7 whole entry): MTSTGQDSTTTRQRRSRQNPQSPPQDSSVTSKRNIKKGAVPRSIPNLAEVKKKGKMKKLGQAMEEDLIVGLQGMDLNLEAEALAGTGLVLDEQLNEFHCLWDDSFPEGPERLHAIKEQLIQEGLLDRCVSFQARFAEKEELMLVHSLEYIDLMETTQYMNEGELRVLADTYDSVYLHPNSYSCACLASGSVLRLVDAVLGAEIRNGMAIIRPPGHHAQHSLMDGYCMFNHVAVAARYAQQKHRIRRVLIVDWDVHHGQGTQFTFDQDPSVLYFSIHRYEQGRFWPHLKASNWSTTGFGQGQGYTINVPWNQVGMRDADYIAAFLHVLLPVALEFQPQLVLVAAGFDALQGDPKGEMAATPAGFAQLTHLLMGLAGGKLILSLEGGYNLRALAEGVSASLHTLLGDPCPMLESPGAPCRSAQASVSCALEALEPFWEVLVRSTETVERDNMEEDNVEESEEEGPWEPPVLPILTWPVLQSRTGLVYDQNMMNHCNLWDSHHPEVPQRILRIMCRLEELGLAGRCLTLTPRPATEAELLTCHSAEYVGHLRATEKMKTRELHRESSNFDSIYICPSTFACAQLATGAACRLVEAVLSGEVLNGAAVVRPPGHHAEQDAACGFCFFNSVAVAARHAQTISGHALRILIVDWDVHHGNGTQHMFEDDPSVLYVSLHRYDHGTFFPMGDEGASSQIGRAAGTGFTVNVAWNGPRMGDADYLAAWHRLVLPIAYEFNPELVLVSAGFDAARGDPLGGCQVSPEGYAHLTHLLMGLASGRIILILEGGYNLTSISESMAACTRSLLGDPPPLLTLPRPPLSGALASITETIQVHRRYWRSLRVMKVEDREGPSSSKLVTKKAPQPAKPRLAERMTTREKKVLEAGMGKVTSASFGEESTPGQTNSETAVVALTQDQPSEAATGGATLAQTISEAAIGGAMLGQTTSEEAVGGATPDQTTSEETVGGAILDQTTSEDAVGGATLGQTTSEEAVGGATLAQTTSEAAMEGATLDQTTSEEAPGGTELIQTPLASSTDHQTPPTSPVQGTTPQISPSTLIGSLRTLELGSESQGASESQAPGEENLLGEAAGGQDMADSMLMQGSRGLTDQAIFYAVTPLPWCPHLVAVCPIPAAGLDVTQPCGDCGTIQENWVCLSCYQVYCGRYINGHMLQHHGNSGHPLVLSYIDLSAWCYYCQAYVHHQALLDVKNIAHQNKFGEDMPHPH
Chain of HDAC7 (Q8WUI4 whole entry): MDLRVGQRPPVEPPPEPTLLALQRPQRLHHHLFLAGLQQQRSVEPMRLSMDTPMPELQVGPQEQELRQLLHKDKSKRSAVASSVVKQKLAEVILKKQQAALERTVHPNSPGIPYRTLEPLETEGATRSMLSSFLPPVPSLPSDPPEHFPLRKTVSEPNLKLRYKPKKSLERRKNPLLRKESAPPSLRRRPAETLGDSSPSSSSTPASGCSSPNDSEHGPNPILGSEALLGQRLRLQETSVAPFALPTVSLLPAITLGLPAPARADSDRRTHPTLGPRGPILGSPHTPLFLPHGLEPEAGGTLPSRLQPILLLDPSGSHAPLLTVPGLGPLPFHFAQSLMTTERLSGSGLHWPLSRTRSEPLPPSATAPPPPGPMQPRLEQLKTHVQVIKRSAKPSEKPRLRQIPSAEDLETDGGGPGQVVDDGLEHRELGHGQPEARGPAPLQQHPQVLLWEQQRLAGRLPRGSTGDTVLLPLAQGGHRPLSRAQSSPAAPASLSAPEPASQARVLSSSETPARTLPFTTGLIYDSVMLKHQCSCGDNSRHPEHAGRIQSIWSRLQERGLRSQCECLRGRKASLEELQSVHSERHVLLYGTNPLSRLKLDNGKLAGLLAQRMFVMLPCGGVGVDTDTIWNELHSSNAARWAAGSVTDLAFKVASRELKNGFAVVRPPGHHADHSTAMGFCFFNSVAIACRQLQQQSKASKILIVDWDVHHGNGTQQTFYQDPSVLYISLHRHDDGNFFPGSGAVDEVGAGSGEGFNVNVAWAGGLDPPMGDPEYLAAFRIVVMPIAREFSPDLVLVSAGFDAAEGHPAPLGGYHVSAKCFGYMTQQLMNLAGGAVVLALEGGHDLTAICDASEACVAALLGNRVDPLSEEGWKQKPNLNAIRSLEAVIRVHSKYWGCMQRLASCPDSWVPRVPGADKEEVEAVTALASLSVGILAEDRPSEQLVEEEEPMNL
Chain of HDAC4 (P56524 whole entry): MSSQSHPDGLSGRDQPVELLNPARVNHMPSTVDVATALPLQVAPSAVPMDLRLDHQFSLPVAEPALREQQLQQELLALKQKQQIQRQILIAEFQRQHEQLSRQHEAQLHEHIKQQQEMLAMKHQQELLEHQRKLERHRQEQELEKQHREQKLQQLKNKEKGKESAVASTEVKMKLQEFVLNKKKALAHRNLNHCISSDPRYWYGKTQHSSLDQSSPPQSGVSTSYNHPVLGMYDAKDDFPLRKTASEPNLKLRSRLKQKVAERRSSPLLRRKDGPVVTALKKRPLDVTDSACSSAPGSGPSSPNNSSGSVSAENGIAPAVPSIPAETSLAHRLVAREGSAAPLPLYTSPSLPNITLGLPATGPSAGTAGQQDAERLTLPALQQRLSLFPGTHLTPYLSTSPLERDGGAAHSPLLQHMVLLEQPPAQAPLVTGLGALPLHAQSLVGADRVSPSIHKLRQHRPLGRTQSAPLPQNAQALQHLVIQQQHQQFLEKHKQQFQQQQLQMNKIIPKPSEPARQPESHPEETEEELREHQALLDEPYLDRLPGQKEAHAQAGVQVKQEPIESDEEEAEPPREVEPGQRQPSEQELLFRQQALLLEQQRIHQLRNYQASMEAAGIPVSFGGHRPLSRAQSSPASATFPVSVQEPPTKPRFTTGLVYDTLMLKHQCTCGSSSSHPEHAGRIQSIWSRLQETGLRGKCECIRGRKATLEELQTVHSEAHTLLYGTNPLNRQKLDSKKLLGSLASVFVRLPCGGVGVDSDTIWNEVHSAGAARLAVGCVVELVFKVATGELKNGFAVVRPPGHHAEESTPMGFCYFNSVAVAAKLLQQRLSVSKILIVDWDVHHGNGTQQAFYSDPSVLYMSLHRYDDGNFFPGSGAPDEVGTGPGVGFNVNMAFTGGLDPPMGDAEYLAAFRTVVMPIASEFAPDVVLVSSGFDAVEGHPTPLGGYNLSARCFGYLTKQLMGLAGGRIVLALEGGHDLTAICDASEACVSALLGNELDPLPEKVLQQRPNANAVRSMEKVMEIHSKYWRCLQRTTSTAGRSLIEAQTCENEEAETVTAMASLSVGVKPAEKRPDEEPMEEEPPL
Chain of HDAC8 (Q9BY41 whole entry): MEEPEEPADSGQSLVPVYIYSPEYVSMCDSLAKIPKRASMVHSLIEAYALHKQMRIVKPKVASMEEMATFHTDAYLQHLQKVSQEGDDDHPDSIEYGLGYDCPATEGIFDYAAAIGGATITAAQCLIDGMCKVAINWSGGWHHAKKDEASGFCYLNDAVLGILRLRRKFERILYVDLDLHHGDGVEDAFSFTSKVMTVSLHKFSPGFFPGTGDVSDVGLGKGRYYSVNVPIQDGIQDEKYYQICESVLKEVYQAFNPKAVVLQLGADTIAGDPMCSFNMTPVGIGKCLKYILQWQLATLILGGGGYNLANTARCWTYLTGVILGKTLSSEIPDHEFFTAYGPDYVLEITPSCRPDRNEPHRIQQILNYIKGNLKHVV

Structure (SMILES): O=C(NO)c1ccc(C2=Nc3ccccc3Oc3ccccc32)cc1 [CN54]
- IC50 (HDAC1): 56.1 nM
- [11C]CN133 uptake in peripheral organs/regions of rats after treatment (histone deacetylases [1]): decreased uptake
- blocking of [11C]CN133 uptake in rat brain after pretreatment (histone deacetylases [1]): blocked; also recorded: activity blocking
- IC50 (HDAC3): 7.1 nM
- IC50 (HDAC2): 53.7 nM

Structure (SMILES): CN(Cc1ccc(/C=C/C(=O)NO)cc1)CC12CC3CC(CC(C3)C1)C2 [CN133, (E)-3-(4-((((3r,5r,7r)-adamantan-1-ylmethyl)(methyl)amino)methyl)phenyl)-N-hydroxyacrylamide]
- off target binding [2]: minimal (if any) off target binding
- partition coefficient (Log D) (Log D determination): 2.03
- IC50 (HDAC7): > 20000 nM
- IC50 (HDAC9): > 15000 nM
- IC50 (HDAC1): 0.3 nM
- IC50 / binding towards HDAC isoforms (in words) (HDAC1 through HDAC9): low nanomolar; also recorded: sub-nanomolar
- selectivity over each of the other HDAC isoforms (HDAC1 through HDAC9; HDAC1-3 and HDAC6 versus other isoforms): greater than 100 fold
- IC50 (HDAC4): 1970 nM
- P-glycoprotein interaction (CsA pretreatment study) (histone deacetylases [1]; 30-minute pretreatment of CsA 25 mg/kg): not a Pgp inhibitor
- reversibility of binding (histone deacetylases [1]; CN133 1.0 mg/kg i.v. 20 minutes into baseline scan with [11C]CN133): reversible inhibitor; also recorded: rapid washout of radioactivity from brain regions
- [11C]CN133 uptake in peripheral organs/regions of rats after treatment (histone deacetylases [1]): decreased
- IC50 (HDAC5): 352 nM
- efficacy in cell cultures (cell cultures): sub-nanomolar
- IC50 (HDAC3): 0.6 nM
- IC50 (HDAC6): 4.1 nM
- IC50 (HDAC8): > 15000 nM
- changes in vital signs (histone deacetylases [3]; baboon): did not notice any significant changes
- blocking of [11C]CN133 uptake in baboon peripheral organs (time-activity curves) (histone deacetylases [3]; kidney): significant blocking
- blocking of [11C]CN133 uptake in baboon brain (histone deacetylases [3]; intravenous, CN133 0.01-1.0 mg/kg, CN147 0.5 mg/kg): reduced the regional radioactivity uptake

Structure (SMILES): O=C(CCCCCCC(=O)Nc1ccccc1)NO [SAHA, suberanilohydroxamic acid, reference compound]
- [11C]CN133 uptake in peripheral organs/regions of rats after treatment (histone deacetylases [1]): decreased uptake
- blocking of [11C]CN133 uptake in rat brain after pretreatment (histone deacetylases [1]): no significant change; also recorded: did not block the brain uptake
- blocking of [11C]CN133 uptake in baboon peripheral organs (time-activity curves) (histone deacetylases [3]; kidney): significant blocking

Structure (SMILES): [11CH3]N(Cc1ccc(/C=C/C(=O)NO)cc1)CC12CC3CCC(CC(C3)C1)C2 [[11C]CN133]
- logD (Log D determination; read-out: partition coefficient (Log D)): 2.03
- IC50 / binding towards HDAC isoforms (in words) (HDAC1 through HDAC9): sub-nanomolar
- fraction unbound at 10 min [4]: 0.945
- fraction unbound at 10 min [5]: 0.986
- BBB penetration (histone deacetylases [1]; rats, intravenous, 60 minutes scan): high BBB penetration
- blocking of [11C]CN133 uptake in rat brain after pretreatment (histone deacetylases [1]): dose-dependent blocking
- VT (Ichese MAI), Baseline (histone deacetylases [3]; Cerebellum VOI): 19.45 ± 7.5
- VT (Logan Plot), Baseline (histone deacetylases [3]; Cerebellum VOI): 19.28 ± 3.18
- VT (Ichese MAI), Baseline (histone deacetylases [3]; Whole Brain VOI): 14.65 ± 8.48
- VT (Logan Plot), Baseline (histone deacetylases [3]; Whole Brain VOI): 14.46 ± 3.83
- time of peak radioactivity in the brain after injection (histone deacetylases [3]; baboon): about 1 minute
- tracer uptake in peripheral organs (histone deacetylases [3]; baboon heart, kidney, pancreas and spleen): good uptake
- changes in vital signs (histone deacetylases [3]; baboon): did not notice any significant changes
